Measured values taken from publication PMC3493529, “Molecular and Pharmacological Characterization of Serotonin 5-HT2α and 5-HT7 Receptors in the Salivary Glands of the Blowfly Calliphora vicina” (PLoS ONE, 2012).
pIC50: −log10 of the molar value. Where two headings read alike, the source gives them in different places. Blank lines part the entries; values can stand above or below the compound they belong to.

Legend:
[1] = tested on: blowfly salivary glands; assay: 5-HT-induced TEP response of blowfly salivary glands, antagonists; type: cell-based, Calliphora vicina; parameters: key to suppression of the positive TEP phase: ++: complete; +: incomplete; -: no apparent effect; -/+: variable effect; key to suppression of the negative TEP phase: ++: high amplitude; +: low amplitude; -: no apparent effect; -/+: variable effect; conditions: for reversibility / suppression of the negative TEP phase / suppression of the positive TEP phase: TEP response evoked with 10 nM or 30 nM 5-HT
Method: The abdominal portions of salivary glands were dissected in physiological saline (in mM: 128 NaCl, 10 KCl, 2 CaCl2, 2.7 MgCl2, 3 Na-glutamate, 2.8 maleic acid, 10 D-glucose and 10 Tris-HCl, pH 7.2). Measurements of transepithelial potential (TEP) were performed by the oil-gap method with a DPA-2F differential amplifier (npi Electronic Instruments, Tamm, Germany). Data were sampled and digitized at 1 Hz (KUSB-3102 module for AD-conversion; Keithley, Germering, Germany) by using the software TestPoint (v4.1; Capital Equipment Corp, Billerica, MA, USA) for data acquisition and storage.

[2] = target: T1, Cv5-HT2α (Calliphora vicina, UniProt I7JA47); assay: Ca2+ signals (Fluo-4) in Cv5-HT2α-expressing HEK 293 cells, agonists; type: cell-based; conditions: 1 µM biogenic amine; non-transfected cells as control
Method: (§1) We applied a previously established protocol to generate cell lines that constitutively expressed either Cv5-HT2α or Cv5-HT7. […] (flpTM cells, provided by Sibion biosciences GmbH, Jülich, Germany). Approximately 8 µg of the respective expression vectors were introduced into ∼4×10^5 cells by a modified calcium-phosphate method. Stably transfected cells were selected in the presence of the antibiotics Blasticidin (0.1 mg/ml; Cv5-HT2α) or G418 (0.8 mg/ml; Cv5-HT7). Expression of Cv5-HT2α and Cv5-HT7 was monitored by Western blotting with commercially available anti-His antibodies (anti-6x His Epitope Tag; Rockland Immunochemicals Inc, Gilbertsville, USA) and anti-HA antibodies (clone 3F10; Roche, Penzberg, Germany), respectively.
The ability of Cv5-HT2α to induce Ca^2+ signals in the transfected cell line was measured with the Ca^2+-sensitive dye Fluo-4. Similarly, Cv5-HT7-induced cAMP production was indirectly monitored by the cAMP-dependent activation of the cyclic nucleotide-gated ion channel in flpTM cells (see above). The cyclic nucleotide-gated ion channel is permeable to Ca^2+ ions and thus an increase in [cAMP]i leads to an influx of Ca^2+ ions, which can be detected with Fluo-4. […] After 1 h, the loading solution was substituted for dye-free ES. To inhibit cAMP hydrolysis in Cv5-HT7-expressing cells, ES containing 100 µM isobutylmethylxanthine (IBMX) was used. Plates were transferred into a fluorescence reader (FLUOstar Omega; bmg, Offenburg, Germany) and Fluo-4 fluorescence was monitored. […] Fluorescence emission was detected at 520 nm. Once the basal fluorescence in each well had reached a stable value, various concentrations of the respective ligands were added. The resulting changes in Fluo-4 fluorescence were recorded automatically.

[3] = target: Cv5-HT7 (Calliphora vicina, UniProt I7IA71); assay: Inhibition of 5-HT-induced Fluo-4 signals in Cv5-HT7-expressing cells; type: cell-based; conditions: for IC50: read-out: Cv5-HT7 log IC50 (converted)
Method: as §1, with “Cv5-HT7. For Cv5-HT2α expression, human embryonic kidney cells (HEK 293; ECACC, Salisbury, UK) were chosen.” for “Cv5-HT7.”
(§2) The ability of Cv5-HT2α to induce Ca^2+ signals in the transfected cell line was measured with the Ca^2+-sensitive dye Fluo-4. Similarly, Cv5-HT7-induced cAMP production was indirectly monitored by the cAMP-dependent activation of the cyclic nucleotide-gated ion channel in flpTM cells (see above). The cyclic nucleotide-gated ion channel is permeable to Ca^2+ ions and thus an increase in [cAMP]i leads to an influx of Ca^2+ ions, which can be detected with Fluo-4. Cells were grown in 96-well plates to a density of ∼3×10^4 (Cv5-HT2α) or 1.5×10^4 (Cv5-HT7) and then incubated in extracellular solution (ES in mM: 120 NaCl, 5 KCl, 2 CaCl2, 2 MgCl2, 10 glucose, 10 HEPES, pH 7.4) containing 3 mM probenecid, 0.02% (w/v) Pluronic® F-127 (Sigma) and 2 µM Fluo-4AM (Invitrogen). After 1 h, the loading solution was substituted for dye-free ES. To inhibit cAMP hydrolysis in Cv5-HT7-expressing cells, ES containing 100 µM isobutylmethylxanthine (IBMX) was used. Plates were transferred into a fluorescence reader (FLUOstar Omega; bmg, Offenburg, Germany) and Fluo-4 fluorescence was monitored. The excitation wavelength was 485 nm. Fluorescence emission was detected at 520 nm. Once the basal fluorescence in each well had reached a stable value, various concentrations of the respective ligands were added. The resulting changes in Fluo-4 fluorescence were recorded automatically.
(§3) Changes in Ca^2+-dependent Fluo-4 signals were registered automatically. Data represent the means±SD of eight replicates. […] Relative fluorescence (%) is normalized to the values obtained with 100 nM 5-HT in the absence of antagonists. […] Relative fluorescence (%) is normalized to the values obtained with 6 nM 5-HT in the absence of antagonists.

[4] = target: T1, Cv5-HT2α; assay: Inhibition of 5-HT-induced Ca2+ signals in Cv5-HT2α-expressing cells; type: cell-based; conditions: for IC50: read-out: Cv5-HT2α log IC50 (converted)
Method: as §1, with “Cv5-HT7. For Cv5-HT2α expression, human embryonic kidney cells (HEK 293; ECACC, Salisbury, UK) were chosen.” for “Cv5-HT7.”
as §2, §3

[5] = in the presence of 6 nM 5-HT, read-out: Cv5-HT7 IC50
[6] = in the presence of 100 nM 5-HT, read-out: Cv5-HT2α IC50

Sequence of Cv5-HT7 (I7IA71 entry or part of it): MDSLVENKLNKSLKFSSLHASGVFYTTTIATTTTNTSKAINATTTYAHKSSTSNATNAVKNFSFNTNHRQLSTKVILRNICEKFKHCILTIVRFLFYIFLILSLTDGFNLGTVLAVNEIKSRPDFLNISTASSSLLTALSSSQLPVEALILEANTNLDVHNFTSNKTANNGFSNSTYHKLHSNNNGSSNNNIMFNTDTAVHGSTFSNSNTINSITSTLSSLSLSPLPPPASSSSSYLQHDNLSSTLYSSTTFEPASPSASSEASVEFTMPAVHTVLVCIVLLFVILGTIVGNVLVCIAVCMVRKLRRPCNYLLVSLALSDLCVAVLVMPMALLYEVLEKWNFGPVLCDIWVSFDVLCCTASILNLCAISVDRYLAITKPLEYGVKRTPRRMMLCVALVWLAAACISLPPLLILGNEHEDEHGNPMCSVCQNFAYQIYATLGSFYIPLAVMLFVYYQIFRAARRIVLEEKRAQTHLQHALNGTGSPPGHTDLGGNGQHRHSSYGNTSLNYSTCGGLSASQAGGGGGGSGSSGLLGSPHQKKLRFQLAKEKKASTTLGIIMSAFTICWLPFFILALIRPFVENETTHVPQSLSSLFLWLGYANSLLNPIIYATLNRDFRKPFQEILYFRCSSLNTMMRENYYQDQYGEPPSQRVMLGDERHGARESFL
T1 sequence (I7JA47 entry or part of it): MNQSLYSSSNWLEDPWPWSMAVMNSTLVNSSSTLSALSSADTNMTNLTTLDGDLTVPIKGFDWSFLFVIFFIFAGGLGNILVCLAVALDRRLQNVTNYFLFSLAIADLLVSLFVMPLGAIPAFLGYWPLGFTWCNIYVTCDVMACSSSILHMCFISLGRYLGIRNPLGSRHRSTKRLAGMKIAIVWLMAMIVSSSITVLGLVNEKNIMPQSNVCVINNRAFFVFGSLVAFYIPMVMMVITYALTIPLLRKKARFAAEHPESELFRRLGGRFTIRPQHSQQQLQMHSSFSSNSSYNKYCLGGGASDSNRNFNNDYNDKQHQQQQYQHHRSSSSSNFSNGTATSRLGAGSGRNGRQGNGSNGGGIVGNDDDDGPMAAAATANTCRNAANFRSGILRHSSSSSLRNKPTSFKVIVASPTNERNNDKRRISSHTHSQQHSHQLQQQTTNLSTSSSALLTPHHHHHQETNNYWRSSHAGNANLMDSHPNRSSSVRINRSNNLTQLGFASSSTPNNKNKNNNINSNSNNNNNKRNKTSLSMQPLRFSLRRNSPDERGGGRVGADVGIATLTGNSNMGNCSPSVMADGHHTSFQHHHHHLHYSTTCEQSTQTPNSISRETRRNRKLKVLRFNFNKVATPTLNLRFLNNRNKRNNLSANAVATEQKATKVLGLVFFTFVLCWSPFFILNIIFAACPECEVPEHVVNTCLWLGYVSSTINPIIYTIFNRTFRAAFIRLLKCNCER

Structure (SMILES): CN1CCN(C2=Nc3cc(Cl)ccc3Nc3ccccc32)CC1 [clozapine]
- effect on 5-HT-induced TEP response ([1]; 1 µM, 30 nM 5-HT): completely and selectively inhibited the positive TEP phase
- reversibility ([1]; 1 µM): yes
- suppression of the negative TEP phase ([1]; 1 µM): -
- suppression of the positive TEP phase ([1]; 1 µM): ++

Structure (SMILES): NCCc1c[nH]cn1 [histamine]
- effect on [Ca2+]i in Cv5-HT2α-expressing cells [2]: stimulated Ca^2+ signals

- pIC50 [3, 5]: 5.82
- IC50 ([3]; in the presence of 6 nM 5-HT): 1.45 µM
- pIC50 [4, 6]: 4.85
- IC50 ([4]; in the presence of 100 nM 5-HT): 14.1 µM
Structure (SMILES): O=C(c1ccc(F)cc1)C1CCN(CCn2c(=O)[nH]c3ccccc3c2=O)CC1 [ketanserin]

Structure (SMILES): CSc1ccc2c(c1)C(N1CCN(C)CC1)Cc1ccccc1S2 (stereo not shown) [methiothepin]
- antagonistic effect on Cv5-HT7 ([3]; high concentrations (10 µM)): slight antagonistic effect
- Cv5-HT7 IC50 ([3]; in the presence of 6 nM 5-HT): not calculable
- Cv5-HT7 log IC50 ([3]; in the presence of 6 nM 5-HT): not calculable
- Cv5-HT2α log IC50 ([4]; in the presence of 100 nM 5-HT): −5.92±0.06
- pIC50 [4, 6]: 5.92
- reversibility ([1]; 3 µM): no
- suppression of the negative TEP phase ([1]; 3 µM): -/+
- suppression of the positive TEP phase ([1]; 3 µM): ++
- effect on 5-HT-induced TEP response ([1]; ≥1 µM): completely abolished the positive TEP phase

- pIC50 [3, 5]: 5.33
- IC50 ([3]; in the presence of 6 nM 5-HT): 4.68 µM
- pIC50 [4, 6]: 3.70
- IC50 ([4]; in the presence of 100 nM 5-HT): 200 µM
Structure (SMILES): Cc1ccc(N(CC2=NCCN2)c2cccc(O)c2)cc1 [phentolamine]

- pIC50 [3, 5]: 6.55
- IC50 ([3]; in the presence of 6 nM 5-HT): 0.275 µM
- Cv5-HT2α IC50 ([4]; in the presence of 100 nM 5-HT): no effect
- Cv5-HT2α log IC50 ([4]; in the presence of 100 nM 5-HT): no effect
Structure (SMILES): O=C(CCCN1CCC2(CC1)C(=O)NCN2c1ccccc1)c1ccc(F)cc1 [spiperone]
- reversibility ([1]; 1-10 µM): yes
- suppression of the negative TEP phase ([1]; 1-10 µM): -
- suppression of the positive TEP phase ([1]; 1-10 µM): +
- effect on 5-HT-induced TEP response ([1]; 1–10 µM): reversibly but incompletely inhibited the positive phase

Structure (SMILES): COC(=O)[C@@H]1[C@H]2C[C@H]3c4[nH]c5ccccc5c4CCN3C[C@@H]2CC[C@@H]1O [yohimbine]
- pIC50 ([3]; Cv5-HT7 IC50, in the presence of 6 nM 5-HT): 3.72
- pIC50 ([3]; Cv5-HT7 log IC50, in the presence of 6 nM 5-HT): 3.72
- pIC50 ([4]; Cv5-HT2α IC50, in the presence of 100 nM 5-HT): 5.54
- pIC50 ([4]; Cv5-HT2α log IC50, in the presence of 100 nM 5-HT): 5.54
